For 30 compounds, DC50, Dmax and IC50 results are on record in patent publication US20250049798A1, “WEE1 PROTEIN KINASE DEGRADATION AGENT AND USE THEREOF” (HANGZHOU GLUBIO PHARMACEUTICAL CO. LTD., priority 2021, published 2025).

The target in experiment [1] is HiBiT tagged Wee1 (Homo sapiens, UniProt P30291). In words: Wee1 protein degradation assay (HiBiT assay). Type of experiment: cell-based. To be noted: engineered HT-1080 cells, 20 hours; for Dmax: maximum percentage of Wee1 degradation, read-out: HiBiT Wee1: Dmax.
Chain of HiBiT tagged Wee1 (P30291 whole entry): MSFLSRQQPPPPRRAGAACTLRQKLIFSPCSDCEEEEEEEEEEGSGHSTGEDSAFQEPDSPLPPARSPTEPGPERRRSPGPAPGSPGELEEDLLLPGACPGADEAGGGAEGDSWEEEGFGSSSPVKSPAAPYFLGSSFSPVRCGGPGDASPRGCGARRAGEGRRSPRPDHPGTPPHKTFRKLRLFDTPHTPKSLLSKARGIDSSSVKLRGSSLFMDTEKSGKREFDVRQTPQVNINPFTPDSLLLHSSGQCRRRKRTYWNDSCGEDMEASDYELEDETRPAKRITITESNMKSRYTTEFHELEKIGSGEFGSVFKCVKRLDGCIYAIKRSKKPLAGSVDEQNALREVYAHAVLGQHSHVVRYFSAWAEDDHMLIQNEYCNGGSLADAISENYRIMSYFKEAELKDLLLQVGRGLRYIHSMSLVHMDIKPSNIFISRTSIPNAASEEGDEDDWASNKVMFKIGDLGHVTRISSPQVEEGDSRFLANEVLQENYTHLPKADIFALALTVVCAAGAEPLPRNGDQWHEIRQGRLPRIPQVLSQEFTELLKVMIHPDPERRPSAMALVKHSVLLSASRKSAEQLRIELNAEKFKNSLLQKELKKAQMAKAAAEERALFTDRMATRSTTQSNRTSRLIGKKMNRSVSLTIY
Experiment [2] relates to NCI-H1048 cells. The experiment is described as follows: NCI-H1048 cell proliferation assay (CTG assay). The format is cell-based. The following applies: Homo sapiens, 120 hours, read-out: CTG cellular assay_H1048: IC50. On the procedure: NCI-H1048 Cell Proliferation Assay (CTG Assay) The following is an example of an assay that can be used to determine the anti-proliferative activity of Wee1 PROTACs in a small cell lung cancer cell line, NCI-H1048 (ATCC Cat #CRL-5853). This cell line was cultured in RPMI-1640 medium supplemented with 10% FBS. About 1,200 NCI-H1048 cells in 50 μL of culture medium were seeded into a 384-well plate (Cat #3764, Corning), pre-spotted with compounds using the Echo 650 liquid handler (Beckman). The dose-response-curve (DRC) typically has 10-points with a highest concentration at 10 μM, and half-log diluted to as low as 0.316 nM, plus a DMSO control. Assay plates were incubated at 37° C. with 5% CO2 for 120 hours. After that, 20 μL of the CellTiter-Glo (CTG) Luminescent Cell Viability Assay Reagent (Cat #G7573, Promega) was added to each well and incubated at room temperature for 30 minutes. Luminescence was then measured with Pherastar microplate reader (BMG Labtech). All percentage of cell growth inhibition curves were processed using Collaborative Drug Discovery Vault.
Cell viability reads in compound-treated wells were normalized to that of DMSO control and expressed as Percent of Control (PoC, y). A four Parameter Logistic Model was used to determine the compound's EC50 and DC50, using the following equation: […]

For the compound `C=CCn1c(=O)c2cnc(Nc3ccc(N4CCN(CC5CN(c6ccc7c(c6)C(=O)N(C6CCC(=O)NC6=O)C7=O)C5)CC4)cc3)nc2n1-c1cccc(C(C)(C)O)n1` (centres unmarked) [Compound 10], in experiment [1], the DC50 (commonly the concentration giving 50% degradation) was less than 100 nM and the Dmax (in general, the greatest extent of degradation seen) lay within 50 to 75%. In experiment [2], the half-maximal inhibitory concentration (IC50) (in general, the concentration that gives 50% inhibition) is 25 to 100 nM.
As to `O=C1CCC(N2C(=O)c3cccc(NCCCN4CCN(c5ccc(Nc6ncc7c(=O)n(-c8c(Cl)cccc8Cl)c8nccn8c7n6)cc5)CC4)c3C2=O)C(=O)N1` (centres unmarked) [Compound 2], in experiment [1], the DC50 is less than 100 nM and the Dmax fell in the range of 50 to 75%. Further, the IC50 in experiment [2] lay within 25 to 100 nM.
For `C=CCn1c(=O)c2cnc(Nc3ccc4c(c3)CN(CC3CCN(c5ccc6c(c5)C(=O)N(C5CCC(=O)NC5=O)C6=O)CC3)CC4)nc2n1-c1cccc(C(C)(C)O)n1` (centres unmarked) [Compound 7], in that order: more than 1000 nM, less than 50% and more than 100 nM.
For `C=CCn1c(=O)c2cnc(Nc3ccc(N4CCN(CC5CCN(c6ccc7c(N8CCC(=O)NC8=O)nn(C)c7c6)CC5)CC4)c(C)c3)nc2n1-c1ccc2c(n1)[C@@](O)(CC)CC2` [Compound 129], in that order: less than 100 nM, 50 to 75% and not above 25 nM.
On to `C=CCn1c(=O)c2cnc(Nc3ccc(N4CCN(CC5CCN(c6cc7c(cc6F)c(N6CCC(=O)NC6=O)nn7C)CC5)CC4)cc3)nc2n1-c1ccc2c(n1)[C@](C)(O)CC2` [Compound 196], for which, in experiment [1], the DC50 was less than 100 nM and the Dmax is more than 75%. Moreover, in experiment [2], the IC50 is not above 25 nM.
Consider `C=CCn1c(=O)c2cnc(Nc3ccc(N4CCC(CN5CCN(c6ccc(NC7CCC(=O)NC7=O)cc6)CC5)CC4)cc3)nc2n1-c1cccc(C(C)(C)O)n1` (centres unmarked) [Compound 92], for which, in experiment [1], the DC50 is less than 100 nM and the Dmax was more than 75%. The IC50 in experiment [2] was not above 25 nM.
Regarding `C=CCn1c(=O)c2cnc(Nc3ccc(C4CCN(CC5CCN(c6cccc7c6n(C)c(=O)n7C6CCC(=O)NC6=O)CC5)CC4)c(C)c3)nc2n1-c1cccc(C(C)(C)O)n1` (centres unmarked) [Compound 97], the Dmax in experiment [1] is 50 to 75%. In experiment [2], the IC50 is not above 25 nM.
As to `C=CCn1c(=O)c2cnc(Nc3ccc(N4CCN(CC5CCN(c6cc7c(cc6F)c(N6CCC(=O)NC6=O)nn7C)CC5)CC4)cc3)nc2n1-c1ccc2c(n1)[C@@](O)(CC)CC2` [Compound 161], in experiment [1], the DC50 was less than 100 nM and the Dmax is more than 75%. Further, the IC50 in experiment [2] was not above 25 nM.
As to `C=CCn1c(=O)c2cnc(Nc3ccc(C4CCN(CC5CCN(c6cccc7c6n(C)c(=O)n7C6CCC(=O)NC6=O)CC5)CC4)cc3)nc2n1-c1ccc2c(n1)[C@@](O)(CC)CC2` (some centres unmarked) [Compound 108], in experiment [1], the DC50 is less than 100 nM and the Dmax is 50 to 75%. In addition, the IC50 in experiment [2] was not above 25 nM.
`CC(C)n1c(=O)c2cnc(Nc3ccc(N4CCN(CC5CCN(c6ccc(NC7CCC(=O)NC7=O)cc6F)CC5)CC4)cc3)nc2n1-c1cccc(C(C)(C)F)n1` (centres unmarked) [Compound 199]: in experiment [1], the DC50 is less than 100 nM and the Dmax is more than 75%. In experiment [2], the half-maximal inhibitory concentration (IC50) lay in the range of 25 to 100 nM.
On the same counts, the results for `O=C1CCC(N2C(=O)c3ccc(N4CCC(CN5CCC(c6ccc(Nc7ncc8c(=O)n(-c9c(Cl)cccc9Cl)c9nccn9c8n7)cc6)CC5)CC4)cc3C2=O)C(=O)N1` (centres unmarked) [Compound 14] are less than 100 nM, 50 to 75% and 25 to 100 nM.
Turning to `C=CCn1c(=O)c2cnc(Nc3ccc(N4CCN(CC5CCN(c6ccc7c(N8CCC(=O)NC8=O)nn(C)c7c6)CC5)CC4)cc3)nc2n1-c1ccc2c(n1)[C@@](O)(CC)CC2` [Compound 114], in experiment [1], the DC50 was less than 100 nM and the Dmax is more than 75%. Further, the IC50 in experiment [2] is not above 25 nM.
As for `C=CCn1c(=O)c2cnc(Nc3ccc(N4CCC(N5CC6(CN(c7ccc(NC8CCC(=O)NC8=O)cc7F)C6)C5)CC4)cc3)nc2n1-c1cccc(C(C)(C)O)n1` (centres unmarked) [Compound 123], in experiment [1], the DC50 is less than 100 nM and the Dmax was more than 75%. For the same compound, the IC50 in experiment [2] is not above 25 nM.
`C=CCn1c(=O)c2cnc(Nc3ccc(N4CCC(CN5CCC(c6cccc7c6n(C)c(=O)n7C6CCC(=O)NC6=O)CC5)CC4)cc3)nc2n1-c1ccc2c(n1)[C@@](O)(CC)CC2` (some centres unmarked) [Compound 54]: in experiment [1], the DC50 is less than 100 nM and the Dmax fell in the range of 50 to 75%. In addition, the IC50 in experiment [2] is 25 to 100 nM.
Turning to `C=CCn1c(=O)c2cnc(Nc3ccc(N4CCC(CN5CCC(c6ccc7c(N8CCC(=O)NC8=O)nn(C)c7c6)CC5)CC4)cc3)nc2n1-c1cccc(C(C)(C)O)n1` [Compound 95], in experiment [1], the DC50 was less than 100 nM and the Dmax was more than 75%. In experiment [2], the IC50 is not above 25 nM.
In the case of `C=CCn1c(=O)c2cnc(Nc3ccc(N4CCN(CCCc5ccc6c(c5)n(C)c(=O)n6C5CCC(=O)NC5=O)CC4)cc3)nc2n1-c1cccc(C(C)(C)O)n1` (centres unmarked) [Compound 46], in experiment [1], the DC50 is less than 100 nM and the Dmax lay in the range of 50 to 75%. The IC50 in experiment [2] lay in the range of 25 to 100 nM.
As for `C=CCn1c(=O)c2cnc(Nc3ccc(N4CCC(CN5CCN(c6cccc7c(C8CCC(=O)NC8=O)nn(C)c67)CC5)CC4)cc3)nc2n1-c1cccc(C(C)(C)O)n1` (centres unmarked) [Compound 144], in experiment [1], the half-maximal degradation concentration (DC50) was less than 100 nM and the Dmax is more than 75%. In addition, the IC50 in experiment [2] was not above 25 nM.
On to `C=CCn1c(=O)c2cnc(Nc3ccc(C4CCN(CC5CCN(c6ccc(NC7CCC(=O)NC7=O)cc6)CC5)CC4)cc3)nc2n1-c1cccc(C(C)(C)O)n1` (centres unmarked) [Compound 85], for which, in experiment [1], the DC50 was less than 100 nM and the maximal degradation (Dmax) fell in the range of 50 to 75%. The IC50 in experiment [2] is not above 25 nM.
For `C=CCn1c(=O)c2cnc(Nc3ccc(N4CCN(CC5CCN(c6ccc7c(N8CCC(=O)NC8=O)nn(C)c7c6)CC5)CC4)cc3)nc2n1-c1cccc(C(C)(C)O)n1` [Compound 105], in experiment [1], the DC50 was less than 100 nM and the Dmax is more than 75%. Moreover, the IC50 in experiment [2] is not above 25 nM.
As for `C=CCn1c(=O)c2cnc(Nc3ccc(N4CCN(C5CC6(C5)CN(c5ncc(NC7CCC(=O)NC7=O)cc5F)C6)CC4)cc3)nc2n1-c1ccc2c(n1)[C@@](O)(CC)CC2` (some centres unmarked) [Compound 185], in experiment [1], the DC50 was less than 100 nM and the Dmax is more than 75%. In experiment [2], the IC50 was not above 25 nM.
As to `C=CCn1c(=O)c2cnc(Nc3ccc(N4CCC(CN5CCN(c6ccc(NC7CCC(=O)NC7=O)cc6F)CC5)CC4)cc3)nc2n1-c1ccc2c(n1)[C@@](C)(O)CC2` (single isomer, unassigned) [Compound 121], in experiment [1], the DC50 was less than 100 nM and the Dmax is more than 75%. Also, the IC50 in experiment [2] is not above 25 nM.
For `C=CCn1c(=O)c2cnc(Nc3ccc(C4CCN(CC5CN(c6ccc7c(c6)C(=O)N(C6CCC(=O)NC6=O)C7=O)C5)CC4)cc3)nc2n1-c1cccc(C(C)(C)O)n1` (centres unmarked) [Compound 9], in that order: less than 100 nM, 50 to 75% and 25 to 100 nM.
On the same counts, the results for `C=CCn1c(=O)c2cnc(Nc3ccc(N4CCN(CC5CCN(c6ncc(NC7CCC(=O)NC7=O)cc6F)CC5)CC4)cc3)nc2n1-c1ccc2c(n1)[C@@](O)(CC)CC2` (some centres unmarked) [Compound 180] are less than 100 nM, more than 75% and not above 25 nM.
Regarding `C=CCn1c(=O)c2cnc(Nc3ccc(N4CCN(CC5CCN(c6ccc7c(c6)C(=O)N(C6CCC(=O)NC6=O)C7=O)CC5)CC4)cc3)nc2n1-c1cccc(C(C)(C)O)n1` (centres unmarked) [Compound 8], in experiment [1], the DC50 was less than 100 nM and the Dmax was 50 to 75%. For the same compound, in experiment [2], the IC50 lay in the range of 25 to 100 nM.
Consider `C=CCn1c(=O)c2cnc(Nc3ccc(N4CCN(CC5CCN(c6ccc(NC7CCC(=O)NC7=O)cc6F)CC5)CC4)cc3)nc2n1-c1ccc2c(n1)[C@@](O)(CC)CC2` (single isomer, unassigned) [Compound 150-A], for which, in experiment [1], the DC50 is less than 100 nM and the Dmax is more than 75%. The IC50 in experiment [2] was not above 25 nM.
In the case of `C=CCn1c(=O)c2cnc(Nc3ccc(N4CCC(N5CCC(c6ccc(NC7CCC(=O)NC7=O)cc6F)CC5)CC4)cc3)nc2n1-c1cccc(C(C)(C)O)n1` (centres unmarked) [Compound 82], in experiment [1], the DC50 was less than 100 nM and the Dmax is more than 75%. The IC50 in experiment [2] was not above 25 nM.
Take `C=CCn1c(=O)c2cnc(Nc3ccc(N4CCC(CN(C)C5CCN(c6ccc(NC7CCC(=O)NC7=O)cc6F)CC5)CC4)cc3)nc2n1-c1cccc(C(C)(C)O)n1` (centres unmarked) [Compound 91]: in experiment [1], the DC50 was less than 100 nM and the Dmax is more than 75%. The IC50 in experiment [2] is not above 25 nM.
With `C=CCn1c(=O)c2cnc(Nc3ccc(N4CCN(CC5CCN(c6cc7c(cc6F)c(N6CCC(=O)NC6=O)nn7C)CC5)CC4)nc3)nc2n1-c1ccc2c(n1)[C@@](O)(CC)CC2` [Compound 194], in experiment [1], the DC50 is less than 100 nM and the Dmax is more than 75%. In addition, the IC50 in experiment [2] was not above 25 nM.
Turning to `C=CCn1c(=O)c2cnc(Nc3ccc(N4CCN(CC5CCN(c6ccc(NC7CCC(=O)NC7=O)cc6F)CC5)CC4)nc3)nc2n1-c1ccc2c(n1)[C@@](O)(CC)CC2` (some centres unmarked) [Compound 187], in experiment [1], the half-maximal degradation concentration (DC50) is less than 100 nM and the Dmax was more than 75%. Further, the IC50 in experiment [2] was not above 25 nM.
For `C=CCn1c(=O)c2cnc(Nc3ccc(N4CCN(CC5CCN(c6ccc7c(C8CCC(=O)NC8=O)nn(C)c7c6)CC5)CC4)cc3)nc2n1-c1cccc(C(C)(C)O)n1` (centres unmarked) [Compound 76], in experiment [1], the DC50 is less than 100 nM and the greatest degradation seen (Dmax) was 50 to 75%. Further, in experiment [2], the IC50 was not above 25 nM.
